# According to patent US9738634B2, “Heterocyclic amide compound and herbicide” (SYNGENTA PARTICIPATIONS AG, priority 2013, dated 2017):
# What was measured:
# Assay type in all cases: in vivo
# Conditions in all cases: treatment dosage 320 g/ha
# barnyard grass [1] = test: Test Example 1: weedkilling efficacy, preemergent weed treatment in the submerged state; A: barnyard grass
# Procedure, shortened: (§1)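 Emulsion diluted with water to the specified per-hectare dosage is applied onto flood water (4 cm) over alluvial soil on the sowing day, with barnyard grass, bulrush and pondweed seeded and rice (2.5-leaf) transplanted; plants grow at 25–30 °C and are rated at 3 weeks.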
# bulrush [2] = test: Test Example 1: weedkilling efficacy, preemergent weed treatment in the submerged state; B: bulrush
# Procedure, shortened: as §1
# oval-leafed pondweed [3] = test: Test Example 1: weedkilling efficacy, preemergent weed treatment in the submerged state; C: oval-leafed pondweed
# Procedure, shortened: as §1
# transplanted rice = test: Test Example 1: preemergent weed treatment in the submerged state, effect on crop; a: transplanted rice
# Procedure, shortened: as §1
# barnyard grass [4] = test: Test Example 2: weedkilling efficacy, growth period weed treatment in the submerged state; A: barnyard grass
# Procedure, shortened: (§2)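 First, alluvial soil in pots is flooded to 4 cm and mixed seed is sown. Next, plants grow in a greenhouse at 25 to 30° C until the 1-2 leaf stage. Then diluted emulsion is applied onto the water surface at the given g/ha rate, and injury is assessed after 3 weeks.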
# bulrush [5] = test: Test Example 2: weedkilling efficacy, growth period weed treatment in the submerged state; B: bulrush
# Procedure, shortened: as §2
# oval-leafed pondweed [6] = test: Test Example 2: weedkilling efficacy, growth period weed treatment in the submerged state; C: oval-leafed pondweed
# Procedure, shortened: as §2
# crabgrass [7] = test: Test Example 3: weedkilling efficacy through soil treatment; D: crabgrass
# Procedure, shortened: (§3)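 Crop and weed responses were judged three weeks after a uniform surface spray of the water-diluted emulsion at the given g/ha rate. Seeds sat beneath about 1.5 cm of sterilized diluvial soil, and boxes stood in a greenhouse at 25 to 30° C.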
# green foxtail [8] = test: Test Example 3: weedkilling efficacy through soil treatment; E: green foxtail
# Procedure, shortened: as §3
# barnyard grass [9] = test: Test Example 3: weedkilling efficacy through soil treatment; F: barnyard grass
# Procedure, shortened: as §3
# wild oat [10] = test: Test Example 3: weedkilling efficacy through soil treatment; G: wild oat
# Procedure, shortened: as §3
# black-grass [11] = test: Test Example 3: weedkilling efficacy through soil treatment; H: black-grass
# Procedure, shortened: as §3
# Italian ryegrass [12] = test: Test Example 3: weedkilling efficacy through soil treatment; I: Italian ryegrass
# Procedure, shortened: as §3
# common wind-grass [13] = test: Test Example 3: weedkilling efficacy through soil treatment; J: common wind-grass
# Procedure, shortened: as §3
# Indian mallow [14] = test: Test Example 3: weedkilling efficacy through soil treatment; K: Indian mallow
# Procedure, shortened: as §3
# redroot pigweed [15] = test: Test Example 3: weedkilling efficacy through soil treatment; L: redroot pigweed
# Procedure, shortened: as §3
# fig-leafed goosefoot [16] = test: Test Example 3: weedkilling efficacy through soil treatment; M: fig-leafed goosefoot
# Procedure, shortened: as §3
# chickweed [17] = test: Test Example 3: weedkilling efficacy through soil treatment; N: chickweed
# Procedure, shortened: as §3
# catchweed [18] = test: Test Example 3: weedkilling efficacy through soil treatment; O: catchweed
# Procedure, shortened: as §3
# directly sown rice [19] = test: Test Example 3: soil treatment, effect on crop; b: directly sown rice
# Procedure, shortened: as §3
# corn [20] = test: Test Example 3: soil treatment, effect on crop; c: corn
# Procedure, shortened: as §3
# soybean [21] = test: Test Example 3: soil treatment, effect on crop; d: soybean
# Procedure, shortened: as §3
# wheat [22] = test: Test Example 3: soil treatment, effect on crop; e: wheat
# Procedure, shortened: as §3
# beet [23] = test: Test Example 3: soil treatment, effect on crop; f: beet
# Procedure, shortened: as §3
# rapeseed [24] = test: Test Example 3: soil treatment, effect on crop; g: rapeseed
# Procedure, shortened: as §3
# crabgrass [25] = test: Test Example 4: weedkilling efficacy by foliar treatment; D: crabgrass
# Procedure, shortened: (§4)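 Seeds are spot-sown into sterilized diluvial soil and covered with about 1.5 cm of soil. After 14 days' greenhouse growth at 25 to 30° C, plants are sprayed on stems and leaves with diluted emulsion at the stated g/ha rate, then scored at 3 weeks.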
# green foxtail [26] = test: Test Example 4: weedkilling efficacy by foliar treatment; E: green foxtail
# Procedure, shortened: as §4
# barnyard grass [27] = test: Test Example 4: weedkilling efficacy by foliar treatment; F: barnyard grass
# Procedure, shortened: as §4
# wild oat [28] = test: Test Example 4: weedkilling efficacy by foliar treatment; G: wild oat
# Procedure, shortened: as §4
# black-grass [29] = test: Test Example 4: weedkilling efficacy by foliar treatment; H: black-grass
# Procedure, shortened: as §4
# Italian ryegrass [30] = test: Test Example 4: weedkilling efficacy by foliar treatment; I: Italian ryegrass
# Procedure, shortened: as §4
# common wind-grass [31] = test: Test Example 4: weedkilling efficacy by foliar treatment; J: common wind-grass
# Procedure, shortened: as §4
# Indian mallow [32] = test: Test Example 4: weedkilling efficacy by foliar treatment; K: Indian mallow
# Procedure, shortened: as §4
# redroot pigweed [33] = test: Test Example 4: weedkilling efficacy by foliar treatment; L: redroot pigweed
# Procedure, shortened: as §4
# fig-leafed goosefoot [34] = test: Test Example 4: weedkilling efficacy by foliar treatment; M: fig-leafed goosefoot
# Procedure, shortened: as §4
# chickweed [35] = test: Test Example 4: weedkilling efficacy by foliar treatment; N: chickweed
# Procedure, shortened: as §4
# catchweed [36] = test: Test Example 4: weedkilling efficacy by foliar treatment; O: catchweed
# Procedure, shortened: as §4
# birds-eye speedwell = test: Test Example 4: weedkilling efficacy by foliar treatment; p: birds-eye speedwell
# Procedure, shortened: as §4
# directly sown rice [37] = test: Test Example 4: foliar treatment, effect on crop; b: directly sown rice
# Procedure, shortened: as §4
# corn [38] = test: Test Example 4: foliar treatment, effect on crop; c: corn
# Procedure, shortened: as §4
# soybean [39] = test: Test Example 4: foliar treatment, effect on crop; d: soybean
# Procedure, shortened: as §4
# wheat [40] = test: Test Example 4: foliar treatment, effect on crop; e: wheat
# Procedure, shortened: as §4
# beet [41] = test: Test Example 4: foliar treatment, effect on crop; f: beet
# Procedure, shortened: as §4
# rapeseed [42] = test: Test Example 4: foliar treatment, effect on crop; g: rapeseed
# Procedure, shortened: as §4
smiles,measurement,setting,value
CC1=C(c2ccccc2)C(=O)N(C(C)(C)C(=O)Nc2cc(-c3ccc(F)nc3)ccn2)CO1 [B-5-01],A (barnyard grass) weedkilling efficacy grade,barnyard grass [1],"4 (weed kill ratio 70% or more, less than 90%)"
same,B (bulrush) weedkilling efficacy grade,bulrush [2],"5 (weed kill ratio 90% or more, (practically complete withering))"
same,C (oval-leafed pondweed) weedkilling efficacy grade,oval-leafed pondweed [3],"4 (weed kill ratio 70% or more, less than 90%)"
same,a (transplanted rice) effect on crop grade,transplanted rice,0 (weed kill ratio 5% or less (practically no effect))
same,A (barnyard grass) weedkilling efficacy grade,barnyard grass [4],"3 (weed kill ratio 40% or more, less than 70%)"
same,B (bulrush) weedkilling efficacy grade,bulrush [5],"3 (weed kill ratio 40% or more, less than 70%)"
same,C (oval-leafed pondweed) weedkilling efficacy grade,oval-leafed pondweed [6],"4 (weed kill ratio 70% or more, less than 90%)"
same,D (crabgrass) weedkilling efficacy grade,crabgrass [7],0 (weed kill ratio 5% or less (practically no effect))
same,E (green foxtail) weedkilling efficacy grade,green foxtail [8],"2 (weed kill ratio 20% or more, less than 40%)"
same,F (barnyard grass) weedkilling efficacy grade,barnyard grass [9],0 (weed kill ratio 5% or less (practically no effect))
same,G (wild oat) weedkilling efficacy grade,wild oat [10],0 (weed kill ratio 5% or less (practically no effect))
same,H (black-grass) weedkilling efficacy grade,black-grass [11],0 (weed kill ratio 5% or less (practically no effect))
same,I (Italian ryegrass) weedkilling efficacy grade,Italian ryegrass [12],0 (weed kill ratio 5% or less (practically no effect))
same,J (common wind-grass) weedkilling efficacy grade,common wind-grass [13],"4 (weed kill ratio 70% or more, less than 90%)"
same,K (Indian mallow) weedkilling efficacy grade,Indian mallow [14],0 (weed kill ratio 5% or less (practically no effect))
same,L (redroot pigweed) weedkilling efficacy grade,redroot pigweed [15],0 (weed kill ratio 5% or less (practically no effect))
same,M (fig-leafed goosefoot) weedkilling efficacy grade,fig-leafed goosefoot [16],0 (weed kill ratio 5% or less (practically no effect))
same,N (chickweed) weedkilling efficacy grade,chickweed [17],0 (weed kill ratio 5% or less (practically no effect))
same,O (catchweed) weedkilling efficacy grade,catchweed [18],0 (weed kill ratio 5% or less (practically no effect))
same,b (directly sown rice) effect on crop grade,directly sown rice [19],0 (weed kill ratio 5% or less (practically no effect))
same,c (corn) effect on crop grade,corn [20],0 (weed kill ratio 5% or less (practically no effect))
same,d (soybean) effect on crop grade,soybean [21],0 (weed kill ratio 5% or less (practically no effect))
same,e (wheat) effect on crop grade,wheat [22],0 (weed kill ratio 5% or less (practically no effect))
same,f (beet) effect on crop grade,beet [23],0 (weed kill ratio 5% or less (practically no effect))
same,g (rapeseed) effect on crop grade,rapeseed [24],0 (weed kill ratio 5% or less (practically no effect))
same,D (crabgrass) weedkilling efficacy grade,crabgrass [25],0 (weed kill ratio 5% or less (practically no effect))
same,E (green foxtail) weedkilling efficacy grade,green foxtail [26],0 (weed kill ratio 5% or less (practically no effect))
same,F (barnyard grass) weedkilling efficacy grade,barnyard grass [27],0 (weed kill ratio 5% or less (practically no effect))
same,G (wild oat) weedkilling efficacy grade,wild oat [28],0 (weed kill ratio 5% or less (practically no effect))
same,H (black-grass) weedkilling efficacy grade,black-grass [29],0 (weed kill ratio 5% or less (practically no effect))
same,I (Italian ryegrass) weedkilling efficacy grade,Italian ryegrass [30],0 (weed kill ratio 5% or less (practically no effect))
same,J (common wind-grass) weedkilling efficacy grade,common wind-grass [31],0 (weed kill ratio 5% or less (practically no effect))
same,K (Indian mallow) weedkilling efficacy grade,Indian mallow [32],0 (weed kill ratio 5% or less (practically no effect))
same,L (redroot pigweed) weedkilling efficacy grade,redroot pigweed [33],0 (weed kill ratio 5% or less (practically no effect))
same,M (fig-leafed goosefoot) weedkilling efficacy grade,fig-leafed goosefoot [34],"3 (weed kill ratio 40% or more, less than 70%)"
same,N (chickweed) weedkilling efficacy grade,chickweed [35],0 (weed kill ratio 5% or less (practically no effect))
same,O (catchweed) weedkilling efficacy grade,catchweed [36],"1 (weed kill ratio 5% or more, less than 20%)"
same,P (birds-eye speedwell) weedkilling efficacy grade,birds-eye speedwell,"3 (weed kill ratio 40% or more, less than 70%)"
same,b (directly sown rice) effect on crop grade,directly sown rice [37],0 (weed kill ratio 5% or less (practically no effect))
same,c (corn) effect on crop grade,corn [38],0 (weed kill ratio 5% or less (practically no effect))
same,d (soybean) effect on crop grade,soybean [39],0 (weed kill ratio 5% or less (practically no effect))
same,e (wheat) effect on crop grade,wheat [40],0 (weed kill ratio 5% or less (practically no effect))
same,f (beet) effect on crop grade,beet [41],0 (weed kill ratio 5% or less (practically no effect))
same,g (rapeseed) effect on crop grade,rapeseed [42],0 (weed kill ratio 5% or less (practically no effect))
